Experiment: Solubility in solvents (qualitative)
Format: physicochemical

solubility (in acetone): can easily be dissolved
solubility (in acetonitrile): can be well dissolved
solubility (in dichloroethane): can easily be dissolved
solubility (in ethanol): cannot be dissolved well
solubility (in water): can hardly be dissolved
Structure (SMILES): CCOC(=O)Oc1ccc(/C=C/C=C/C(=O)NCCN2CCC(OC(c3ccccc3)c3ccccc3)CC2)cc1OC [TMK 688]
